Data reported in ChEMBL document CHEMBL1143941, “Design, synthesis and structure-activity study of shorter hexa peptide analogues as HIV-1 protease inhibitors” (Bioorg Med Chem, 2008).

What follows are compounds tested on Human immunodeficiency virus 1 (assay: Inhibition of recombinant HIV1 protease at 100 ug/ml).
In the case of H-LLEYVM-OH, the inhibition was 47.2%.
`CC(=O)N[C@H](C(=O)N[C@H](C(=O)N[C@@H](CC(C)C)[C@@H](O)CC(=O)N[C@@H](C)C(=O)N[C@@H](CC(C)C)[C@@H](O)CC(=O)O)C(C)C)C(C)C` was tested, and the inhibition was 98.5%.
For H-LLEYVF-OH, the inhibition was 52.3%.
Compound H-LLEYVW-OH has an inhibition of 64.9%.
Compound H-LLEYVY-OH has an inhibition of 58.6%.
